From PMC3267170, “Pharmacological Modulation of Diacylglycerol-Sensitive TRPC3/6/7 Channels” (Current Pharmaceutical Biotechnology, 2011)
Like-named read-outs stand apart in the source and are kept apart here.

Tests used:
TRPC6 [1] = molecular target: T1, TRPC6 (Homo sapiens, UniProt Q9Y210); test: FLIPR calcium entry in TRPC6-expressing cells stimulated by hyperforin; assay type: cell-based; details: read-out: IC50, hyperforin-induced TRPC6-mediated calcium entry (Fig. 3)
T1 construct: expressed in transfected cells
T1 sequence (Q9Y210 1-931): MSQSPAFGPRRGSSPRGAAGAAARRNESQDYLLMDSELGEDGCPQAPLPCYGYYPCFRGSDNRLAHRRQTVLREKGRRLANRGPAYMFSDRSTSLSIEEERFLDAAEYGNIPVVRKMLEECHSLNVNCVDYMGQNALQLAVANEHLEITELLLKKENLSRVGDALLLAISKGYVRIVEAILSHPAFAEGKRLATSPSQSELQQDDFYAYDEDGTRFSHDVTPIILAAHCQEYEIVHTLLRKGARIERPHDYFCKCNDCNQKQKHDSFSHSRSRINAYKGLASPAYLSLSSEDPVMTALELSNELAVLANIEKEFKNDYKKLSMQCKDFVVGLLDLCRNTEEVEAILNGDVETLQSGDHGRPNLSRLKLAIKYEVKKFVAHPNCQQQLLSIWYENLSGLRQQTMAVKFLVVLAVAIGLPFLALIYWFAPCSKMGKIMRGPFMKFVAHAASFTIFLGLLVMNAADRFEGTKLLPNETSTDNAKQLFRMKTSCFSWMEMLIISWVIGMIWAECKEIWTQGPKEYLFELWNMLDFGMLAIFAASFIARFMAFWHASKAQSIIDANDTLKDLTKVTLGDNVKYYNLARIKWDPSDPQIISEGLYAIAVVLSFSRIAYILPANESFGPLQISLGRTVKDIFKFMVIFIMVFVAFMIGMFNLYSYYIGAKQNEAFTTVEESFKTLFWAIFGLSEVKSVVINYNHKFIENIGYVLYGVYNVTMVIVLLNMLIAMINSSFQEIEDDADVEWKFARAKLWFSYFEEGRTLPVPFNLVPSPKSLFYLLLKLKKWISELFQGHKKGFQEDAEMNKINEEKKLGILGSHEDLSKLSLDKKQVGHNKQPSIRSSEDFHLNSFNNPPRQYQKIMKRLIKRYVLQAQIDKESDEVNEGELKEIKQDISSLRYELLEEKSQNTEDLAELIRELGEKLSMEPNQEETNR
Experimental: (§1) Using this approach, we tested several other structurally related compounds to get a first view on the structure-function relationships of TRPC6.
A) The chemical structures of the tested compound is shown. […] Calcium entry was measured using FLIPR^Tetra and data analysed as described in Jörs et al.. The data were calculated from one experiment of at least three experiments performed in quadruplicates per concentration and TRP channel.
(§2) Calcium entry was measured using FLIPR^Tetra and data analysed as described in Jörs et al.. The data were calculated from one experiment of at least three experiments performed in quadruplicates per concentration and TRP channel.

Drosophila TRPγ = molecular target: T2, Drosophila TRPγ (Drosophila melanogaster, UniProt Q9VJJ7); test: FLIPR calcium entry in TRPγ-expressing cells stimulated by eicosatetraynoic acid; assay type: cell-based; details: fluo-4-loaded cells, eicosatetraynoic acid (20 µM), FLIPR Tetra; read-out: IC50 to block Drosophila TRPγ
T2 construct: expressed in transfected cells
T2 sequence (Q9VJJ7 1-1128): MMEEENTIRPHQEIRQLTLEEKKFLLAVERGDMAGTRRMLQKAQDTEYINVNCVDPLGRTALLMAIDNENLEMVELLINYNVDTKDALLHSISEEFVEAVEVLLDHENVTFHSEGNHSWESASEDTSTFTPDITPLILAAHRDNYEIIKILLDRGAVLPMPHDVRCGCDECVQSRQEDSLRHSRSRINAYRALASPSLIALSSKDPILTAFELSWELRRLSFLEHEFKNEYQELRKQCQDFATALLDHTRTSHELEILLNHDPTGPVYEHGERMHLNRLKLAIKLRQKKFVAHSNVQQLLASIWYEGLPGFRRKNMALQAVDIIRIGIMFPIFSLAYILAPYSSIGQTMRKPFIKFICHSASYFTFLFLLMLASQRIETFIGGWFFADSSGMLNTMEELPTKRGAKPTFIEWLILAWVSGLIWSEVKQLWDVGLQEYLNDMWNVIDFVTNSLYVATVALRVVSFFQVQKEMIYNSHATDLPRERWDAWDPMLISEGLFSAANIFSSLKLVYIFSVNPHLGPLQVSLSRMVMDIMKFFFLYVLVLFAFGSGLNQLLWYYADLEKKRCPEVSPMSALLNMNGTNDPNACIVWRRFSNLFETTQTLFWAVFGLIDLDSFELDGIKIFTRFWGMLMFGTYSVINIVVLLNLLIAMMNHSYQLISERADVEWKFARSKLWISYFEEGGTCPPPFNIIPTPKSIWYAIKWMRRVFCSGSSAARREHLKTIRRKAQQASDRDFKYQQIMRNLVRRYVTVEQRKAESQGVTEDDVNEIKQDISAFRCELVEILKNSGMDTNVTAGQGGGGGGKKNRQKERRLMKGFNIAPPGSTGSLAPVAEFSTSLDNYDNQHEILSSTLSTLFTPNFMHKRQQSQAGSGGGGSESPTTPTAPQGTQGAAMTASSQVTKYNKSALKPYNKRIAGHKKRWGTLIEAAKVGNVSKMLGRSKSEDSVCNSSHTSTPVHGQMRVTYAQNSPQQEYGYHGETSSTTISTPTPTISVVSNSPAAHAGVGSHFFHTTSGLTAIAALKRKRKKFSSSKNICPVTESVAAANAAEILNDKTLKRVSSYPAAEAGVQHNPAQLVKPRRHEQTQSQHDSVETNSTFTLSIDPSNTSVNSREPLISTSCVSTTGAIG
Experimental: as §1, §2

TRPV4 = molecular target: T3, TRPV4 (Homo sapiens, UniProt Q9HBA0); test: FLIPR calcium entry in TRPV4-expressing cells stimulated by 4α-phorbol-didecanoate; assay type: cell-based; details: fluo-4-loaded cells, 4α-phorbol-didecanoate (5 µM), FLIPR Tetra; read-out: IC50 to block TRPV4
T3 construct: expressed in transfected cells
T3 sequence (Q9HBA0 whole entry, species assumed): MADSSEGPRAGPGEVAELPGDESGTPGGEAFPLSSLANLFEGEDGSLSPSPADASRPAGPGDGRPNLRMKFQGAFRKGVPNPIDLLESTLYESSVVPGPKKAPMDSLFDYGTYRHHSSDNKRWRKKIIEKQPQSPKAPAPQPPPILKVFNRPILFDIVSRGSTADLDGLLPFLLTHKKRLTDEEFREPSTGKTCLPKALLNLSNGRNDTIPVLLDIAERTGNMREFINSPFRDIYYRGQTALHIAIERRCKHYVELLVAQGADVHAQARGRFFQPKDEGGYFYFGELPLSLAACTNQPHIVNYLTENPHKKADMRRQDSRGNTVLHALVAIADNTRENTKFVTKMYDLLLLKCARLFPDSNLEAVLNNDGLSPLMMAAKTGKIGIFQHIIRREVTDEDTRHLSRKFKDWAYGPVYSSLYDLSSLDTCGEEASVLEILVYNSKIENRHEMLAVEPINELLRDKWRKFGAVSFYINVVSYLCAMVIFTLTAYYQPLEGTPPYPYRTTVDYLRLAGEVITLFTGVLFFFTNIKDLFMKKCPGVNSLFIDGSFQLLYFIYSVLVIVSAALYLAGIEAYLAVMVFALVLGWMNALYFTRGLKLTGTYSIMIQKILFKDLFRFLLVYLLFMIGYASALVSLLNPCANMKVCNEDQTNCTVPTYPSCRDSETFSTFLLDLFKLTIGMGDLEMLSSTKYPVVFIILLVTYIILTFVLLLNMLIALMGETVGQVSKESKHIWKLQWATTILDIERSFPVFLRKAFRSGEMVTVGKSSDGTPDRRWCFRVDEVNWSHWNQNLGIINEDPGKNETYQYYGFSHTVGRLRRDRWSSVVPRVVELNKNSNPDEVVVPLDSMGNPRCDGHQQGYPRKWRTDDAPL
Experimental: as §1, §2

TRPM3 = molecular target: T4, TRPM3 (Homo sapiens, UniProt Q9HCF6); test: FLIPR calcium entry in TRPM3-expressing cells stimulated by pregnenolone sulphate; assay type: cell-based; details: fluo-4-loaded cells, pregnenolone sulphate (35 µM), FLIPR Tetra; read-out: IC50 to block TRPM3
T4 construct: expressed in transfected cells
T4 sequence (Q9HCF6 whole entry, species assumed): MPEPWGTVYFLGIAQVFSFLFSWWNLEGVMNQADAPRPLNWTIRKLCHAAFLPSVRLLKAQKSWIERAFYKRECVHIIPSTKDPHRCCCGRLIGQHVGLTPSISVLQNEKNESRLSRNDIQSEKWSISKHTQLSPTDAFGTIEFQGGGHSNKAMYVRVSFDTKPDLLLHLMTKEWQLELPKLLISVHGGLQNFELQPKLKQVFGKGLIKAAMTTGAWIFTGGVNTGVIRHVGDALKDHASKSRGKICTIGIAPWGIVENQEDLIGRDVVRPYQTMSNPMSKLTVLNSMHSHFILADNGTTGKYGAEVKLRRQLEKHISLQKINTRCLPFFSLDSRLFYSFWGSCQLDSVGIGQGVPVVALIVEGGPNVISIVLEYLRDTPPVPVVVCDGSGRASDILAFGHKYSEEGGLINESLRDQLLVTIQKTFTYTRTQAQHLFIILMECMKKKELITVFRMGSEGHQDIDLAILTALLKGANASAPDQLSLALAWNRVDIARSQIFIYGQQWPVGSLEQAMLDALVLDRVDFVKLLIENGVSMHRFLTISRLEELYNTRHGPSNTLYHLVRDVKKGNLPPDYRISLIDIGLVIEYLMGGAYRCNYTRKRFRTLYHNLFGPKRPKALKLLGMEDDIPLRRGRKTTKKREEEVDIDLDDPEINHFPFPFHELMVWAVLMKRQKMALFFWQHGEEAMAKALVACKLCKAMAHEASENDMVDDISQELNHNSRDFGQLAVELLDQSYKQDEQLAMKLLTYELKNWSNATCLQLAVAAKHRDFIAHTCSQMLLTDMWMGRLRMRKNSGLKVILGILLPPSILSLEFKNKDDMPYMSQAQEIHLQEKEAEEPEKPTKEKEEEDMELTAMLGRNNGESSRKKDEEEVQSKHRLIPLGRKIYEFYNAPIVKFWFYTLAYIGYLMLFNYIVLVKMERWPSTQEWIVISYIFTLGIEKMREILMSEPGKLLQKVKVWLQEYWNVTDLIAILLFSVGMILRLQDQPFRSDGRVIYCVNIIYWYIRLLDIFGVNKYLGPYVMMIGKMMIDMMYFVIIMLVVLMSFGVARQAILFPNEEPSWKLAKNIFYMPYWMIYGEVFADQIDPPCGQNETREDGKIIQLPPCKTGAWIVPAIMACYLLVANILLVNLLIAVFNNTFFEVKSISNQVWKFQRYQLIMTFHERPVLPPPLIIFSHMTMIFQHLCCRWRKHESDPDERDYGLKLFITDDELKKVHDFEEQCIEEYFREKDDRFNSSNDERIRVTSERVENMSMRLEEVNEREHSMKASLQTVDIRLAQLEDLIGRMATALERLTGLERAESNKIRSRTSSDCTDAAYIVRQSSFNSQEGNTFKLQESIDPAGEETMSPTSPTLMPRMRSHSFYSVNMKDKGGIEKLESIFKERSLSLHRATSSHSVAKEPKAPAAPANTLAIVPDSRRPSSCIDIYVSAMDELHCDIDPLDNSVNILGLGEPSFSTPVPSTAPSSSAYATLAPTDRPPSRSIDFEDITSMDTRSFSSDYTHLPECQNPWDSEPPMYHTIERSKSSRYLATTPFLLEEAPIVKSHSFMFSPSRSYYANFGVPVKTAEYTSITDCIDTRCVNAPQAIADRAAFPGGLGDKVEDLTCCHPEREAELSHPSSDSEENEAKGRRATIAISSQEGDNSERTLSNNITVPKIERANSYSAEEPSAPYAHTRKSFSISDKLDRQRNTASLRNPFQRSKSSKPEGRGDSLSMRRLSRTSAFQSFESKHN
Experimental: as §1, §2

TRPC6 [2] = molecular target: T1, TRPC6; set-up: method as in earlier work; details: 100 µM SKF-96365; ref 12 (Boulay et al.); cited from earlier work
TRPC3 [3] = system: TRPC3; set-up: method as in PMID 12700192; details: 100 µM; human myometrial cells; cited from earlier work
[4] = molecular target: receptor-mediated calcium entry; set-up: method as in PMID 2173565; details: platelets, neutrophils and endothelial cells; read-out: IC50, block of ADP-induced calcium entry; cited from earlier work
TRPC3 [5] = system: TRPC3; set-up: method as in PMID 9368034, PMID 10970899; details: read-out: half-maximal concentration necessary for TRPC3 inhibition; cited from earlier work
TRPC6 [6] = molecular target: T1, TRPC6; set-up: method as in PMID 9368034, PMID 10970899; details: read-out: concentration needed to block TRPC6; cited from earlier work

With `NCCCCCCNS(=O)(=O)c1ccc2c(Cl)cccc2c1` [W-7 isomer, N-(6-Aminohexyl)-5-chloro-2-naphthalenesulfonamide] the IC50 (TRPC6 [1]) was 35 µM.
With `NCCCCCCCCCCNS(=O)(=O)c1cccc2c(Cl)cccc12` [W-7 decyl] the IC50 (TRPC6 [1]) was 29 µM.
In the case of `NCCCCCCCCNS(=O)(=O)c1cccc2c(I)cccc12` [J-8, (N-8-Aminooctyl)-5-iodo-1-naphthalenesulfonamide], the IC50 (TRPC6 [1]) is reported as 85 µM.
In the case of `NCCCCCCNS(=O)(=O)c1cccc2c(Cl)cccc12` [W-7, N-(6-Aminohexyl)-5-chloro-1-naphthalenesulfonamide], the IC50 (Drosophila TRPγ) is reported as 5 µM, the IC50 (TRPV4) is reported as 65 µM and the IC50 (TRPM3) is reported as 15 µM.
In the case of `COc1ccc(CCCOC(Cn2ccnc2)c2ccc(OC)cc2)cc1.Cl` (stereo not drawn) [SKF-96365, 1-{β[3-(4-methoxyphenyl)propoxy]-4-methoxyphenethyl}-1H-imidazole hydrochloride], the “block of heterologously expressed TRPC6” value (TRPC6 [2]) is given as “complete block”, the “block of endogenously expressed TRPC3” value (TRPC3 [3]) is given as “effective in blocking” and the IC50 [4] is given as ~10 µM.
Work on `NCCCCCCNS(=O)(=O)c1cccc2ccccc12` [W-5, N-(6-Aminohexyl)-1-naphthalenesulfonamide] yielded an IC50 (TRPC6 [1]) of 20 µM.
For `[Cl][La]([Cl])[Cl]` [lanthanum chloride], the IC50 (TRPC3 [5]) is listed as 4 µM and the IC50 (TRPC6 [6]) is listed as > 50 µM.
In the case of `O=S(=O)(c1cccc2c(Cl)cccc12)N1CCCNCC1` [ML-9, 1-(5-Chloronaphthalene-1-sulfonyl)-1H-hexahydro-1,4-diazepine], the IC50 (TRPC6 [1]) is reported as 36 µM.
